57 molecules from patent US9670214B2, “Small molecule myristate inhibitors of Bcr-abl and methods of use” (DANA-FARBER CANCER INSTITUTE, INC., priority 2007, dated 2017) can be followed below.

SMILES strings stand for the structures.

For assay [1], the target named is Bcr-abl T315I (Ba/F3.p210^T315I cells) (Homo sapiens, UniProt P00519, T315I, cells depend on it). In words: Proliferation assay (MTT), T315I mutant Bcr-abl expressing Ba/F3 cells. The note with it: 48 h, drug concentrations 0.005-10 μM. Format: cell-based, murine. The text has this: Wild type Bcr-abl expressing 32D (32D.p210) and Ba/F3 (Ba/F3.p210) cells, and mutant Bcr-abl expressing cell lines Ba/F3.p210^G250E, Ba/F3.p210^E255V, Ba/F3.p210^T315I, Ba/F3.p210^F317L and Ba/F3.p210^M351T, as well as Ba/F3 cells transformed with Flt-3-ITD kinase. Additional assays included Ba/F3 cells expressing the fusion protein kinases TEL-PDGFRβ, TEL-JAK1, NPM-ALK, TEL-cKit, Tel-Bmx, Tel-FGR3, Tel-Lck and Ba/F3.TPR-met cells. All the above cell lines were maintained in RPMI-1640 medium with L-Glutamine, 10% FBS and 1 mg/ml geneticin (Gibco).
(§1) Cells (0.3-0.6×10^6/ml) were plated in duplicate or triplicate in 96-well plates containing increasing drug concentrations (0.005-10 μM). After incubation at 37° C. in 5% CO2 for 48 h, the effect of the compounds on cell viability was determined by MTT (Promega) colorimetric dye reduction method. Inhibition of cell proliferation was calculated as a percentage of growth of DMSO treated cells, and IC50 values were determined with Microsoft Excel XLfit3.

The subject of assay [2] is Ba/F3 cells (IL-3 dependent murine pro-B cell line). Put plainly: Proliferation assay (MTT), parental Ba/F3 cells. Format: cell-based. Particulars: Mus musculus, 48 h, drug concentrations 0.005-10 μM, read-out: BaF3. The procedure:
Interleukin-3 (IL-3) dependent murine pro-B cell line, Ba/F3, and murine myeloid precursor cell line, 32D, were maintained in RPMI-1640 medium supplemented with L-Glutamine, 10% FBS and 10 U/ml recombinant murine IL-3 (Roche). Mo7e human megakarioblastic cell line was grown in RPMI-1640 medium supplemented with L-Glutamine, 20% FBS and 5 ng/ml recombinant human granulocyte macrophage cell stimulating factor (GM-CSF) (R&D Systems) or 200 ng/ml stem cell factor (SCF) (Biosource).
as §1

For `COC(=O)c1cc2c(Nc3ccc(OC(F)(F)F)cc3)ncnc2s1`, the IC50 in assay [1] and in assay [2] was > 10 µM each time.

Regarding `O=C(O)c1cc2c(Nc3ccc(OC(F)(F)F)cc3)ncnc2s1`, the IC50 in assay [1] and in assay [2] was > 10 µM in each case.

For `CCNC(=O)c1cc2c(Nc3ccc(OC(F)(F)F)cc3)ncnc2s1`, the IC50 in assay [1] and in assay [2] was > 10 µM throughout.

For `CN(C)C1CCN(Cc2cc3c(Nc4ccc(OC(F)(F)F)cc4)ncnc3s2)C1` (stereo not shown), the IC50 in assay [1] and in assay [2] was > 10 µM in each case.

As to `CN(C)C1CCN(C(=O)c2cc3c(Nc4ccc(OC(F)(F)F)cc4)ncnc3s2)C1` (stereo not shown), the IC50 in assay [1] and in assay [2] was > 10 µM throughout.

`O=C(NC1CCN(Cc2ccccc2)C1)c1cc2c(Nc3ccc(OC(F)(F)F)cc3)ncnc2s1` (stereo not shown): the results for the IC50 in assay [1] and in assay [2] were 0.621 µM and 0.926 µM, respectively.

Turning to `O=C(c1cc2c(Nc3ccc(OC(F)(F)F)cc3)ncnc2s1)N1CCC[C@H]1CO`, the values for the IC50 in assay [1] and in assay [2] were 1.21 µM and 3.66 µM, respectively.

As for `O=C(c1cc2c(Nc3ccc(OC(F)(F)F)cc3)ncnc2s1)N1CCN(c2cccc(C(F)(F)F)c2)CC1`, the IC50 stood at 1.92 µM in assay [1] and 4.55 µM in assay [2].

Take `CN1CCN(C(=O)c2cc3c(Nc4ccc(OC(F)(F)F)cc4)ncnc3s2)CC1`: the IC50 came to 1.25 µM in assay [1] and 2.69 µM in assay [2].

Regarding `O=C(c1cc2c(Nc3ccc(OC(F)(F)F)cc3)ncnc2s1)N1CCC(O)CC1`, the IC50 in assay [1] and in assay [2] was > 10 µM in each case.

For the molecule `FC(F)(F)Oc1ccc(Nc2ncnc3sccc23)cc1`, the IC50 in assay [1] and in assay [2] was > 10 µM in each case.

Consider `Cc1cc2c(Nc3ccc(OC(F)(F)F)cc3)ncnc2s1`, for which the IC50 in assay [1] and in assay [2] was > 10 µM each time.

As for `NS(=O)(=O)c1ccc(-c2cc(Nc3ccc(OC(F)(F)F)cc3)ncn2)cc1`, the IC50 is 1.05 µM in assay [1] and > 10 µM in assay [2].

With `CCNS(=O)(=O)c1ccc(-c2cc(Nc3ccc(OC(F)(F)F)cc3)ncn2)cc1`, the IC50 in assay [1] is 1.85 µM; in assay [2], > 10 µM.

Turning to `O=S(=O)(NCCO)c1ccc(-c2cc(Nc3ccc(OC(F)(F)F)cc3)ncn2)cc1`, the IC50 is 1.45 µM in assay [1] and > 10 µM in assay [2].

On to `CS(=O)(=O)c1ccc(-c2cc(Nc3ccc(OC(F)(F)F)cc3)ncn2)cc1`, for which the figures for the IC50 in assay [1] and in assay [2] were 6.1 µM and > 10 µM, respectively.

With `CCN(CC)S(=O)(=O)c1ccc(-c2cc(Nc3ccc(OC(F)(F)F)cc3)ncn2)cc1`, the IC50 in assay [1] came to 3.88 µM; in assay [2] it was 8.85 µM.

As to `O=S(=O)(c1ccc(-c2cc(Nc3ccc(OC(F)(F)F)cc3)ncn2)cc1)N1CCCCC1`, the IC50 in assay [1] was 1.41 µM; in assay [2] it was > 10 µM.

With `Cc1ccc(S(=O)(=O)Nc2ccc(-c3cc(Nc4ccc(OC(F)(F)F)cc4)ncn3)cc2)cc1`, the IC50 in assay [1] and in assay [2] was > 10 µM in each case.

On to `Cc1ccc(S(=O)(=O)Nc2ccc(-c3ncnc(Nc4ccc(OC(F)(F)F)cc4)c3C)cc2)cc1`, for which the IC50 in assay [1] and in assay [2] was > 10 µM each time.

For the molecule `O=S(=O)(c1ccc(-c2cc(Nc3ccc(OC(F)(F)F)cc3)ncn2)cc1)N1CCOCC1`, the IC50 is 2.63 µM in assay [1] and > 10 µM in assay [2].

Regarding `CS(=O)(=O)Nc1ccc(-c2cc(Nc3ccc(OC(F)(F)F)cc3)ncn2)cc1`, the IC50 in assay [1] turned out to be 0.6 µM; in assay [2] it was 2.21 µM.

Consider `CCCC(C)S(=O)(=O)Nc1ccc(-c2cc(Nc3ccc(OC(F)(F)F)cc3)ncn2)cc1` (stereo not shown), for which the IC50 in assay [1] came out at 1.66 µM; in assay [2] it was 3.8 µM.

As for `Cc1c(Nc2ccc(OC(F)(F)F)cc2)ncnc1-c1ccc(C(=O)NCCO)cc1`, the IC50 was 4.67 µM in assay [1] and > 10 µM in assay [2].

`Cc1c(Nc2ccc(OC(F)(F)F)cc2)ncnc1-c1ccc(C(=O)NCCN2CCOCC2)cc1`: the IC50 in assay [1] was determined as 0.81 µM; in assay [2] it was 3.79 µM.

On to `CC(=O)Nc1cccc(-c2ncnc(Nc3ccc(OC(F)(F)F)cc3)c2C)c1`, for which the IC50 in assay [1] and in assay [2] was > 10 µM in each case.

Regarding `Cc1c(Nc2ccc(OC(F)(F)F)cc2)ncnc1-c1cccc(C(N)=O)c1`, the IC50 in assay [1] and in assay [2] was > 10 µM in each case.

On to `Cc1c(Nc2ccc(OC(F)(F)F)cc2)ncnc1-c1cccc(C(=O)O)c1`, for which the IC50 in assay [1] and in assay [2] was > 10 µM in each case.

For `FC(F)(F)Oc1ccc(Nc2cc(-c3ccc(-c4ccccc4)cc3)ncn2)cc1`, the IC50 was 3.18 µM in assay [1] and > 10 µM in assay [2].

Consider `Cc1c(Nc2ccc(OC(F)(F)F)cc2)ncnc1-c1ccc(-c2ccccc2)cc1`, for which the IC50 in assay [1] and in assay [2] was > 10 µM in each case.

On to `COc1cccc2cc(-c3cc(Nc4ccc(OC(F)(F)F)cc4)ncn3)ccc12`, for which the IC50 in assay [1] and in assay [2] was > 10 µM throughout.

Turning to `COc1cccc2cc(-c3ncnc(Nc4ccc(OC(F)(F)F)cc4)c3C)ccc12`, the IC50 in assay [1] and in assay [2] was > 10 µM throughout.

On to `N#CCc1cccc(-c2cc(Nc3ccc(OC(F)(F)F)cc3)ncn2)c1`, for which the IC50 in assay [1] came to 3.39 µM; in assay [2], 8.82 µM.

On to `O=[N+]([O-])c1cccc(-c2cc(Nc3ccc(OC(F)(F)F)cc3)ncn2)c1`, for which the IC50 in assay [1] and in assay [2] was > 10 µM throughout.

Regarding `COc1ccc(C(=O)Nc2ccc(-c3cc(Nc4ccc(OC(F)(F)F)cc4)ncn3)cc2)cc1`, the IC50 is > 10 µM in assay [1] and 9.22 µM in assay [2].

As for `CCS(=O)(=O)n1cc(-c2cc(Nc3ccc(OC(F)(F)F)cc3)ncn2)cn1`, the IC50 was 4.25 µM in assay [1] and > 10 µM in assay [2].

For the molecule `FC(F)(F)Oc1ccc(Nc2cc(-c3cnn(Cc4ccncc4)c3)ncn2)cc1`, the values for the IC50 in assay [1] and in assay [2] were 4 µM and 7.3 µM, respectively.

For `Cc1c(-c2cc(Nc3ccc(OC(F)(F)F)cc3)ncn2)cnn1-c1ccccc1`, the IC50 is 6.23 µM in assay [1] and > 10 µM in assay [2].

For `Cc1c(Nc2ccc(OC(F)(F)F)cc2)ncnc1-c1cnn(-c2ccccc2)c1C`, the IC50 in assay [1] came out at 5.24 µM; in assay [2], 8.85 µM.

Consider `FC(F)(F)Oc1ccc(Nc2cc(-c3cccc4[nH]ccc34)ncn2)cc1`, for which the IC50 in assay [1] is 6.67 µM; in assay [2], > 10 µM.

Regarding `FC(F)(F)Oc1ccc(Nc2cc(-c3c[nH]c4ccccc34)ncn2)cc1`, the IC50 is 9.28 µM in assay [1] and > 10 µM in assay [2].

Consider `FC(F)(F)Oc1ccc(Nc2cc(-c3ccc4[nH]ccc4c3)ncn2)cc1`, for which the IC50 was 8.71 µM in assay [1] and > 10 µM in assay [2].

As to `O=Cc1cc(-c2cc(Nc3ccc(OC(F)(F)F)cc3)ncn2)co1`, the IC50 was 3.83 µM in assay [1] and > 10 µM in assay [2].

For the molecule `FC(F)(F)Oc1ccc(Nc2cc(-c3cccc4sccc34)ncn2)cc1`, the IC50 was determined as 3.74 µM in assay [1] and 3.06 µM in assay [2].

Consider `Cc1c(Nc2ccc(OC(F)(F)F)cc2)ncnc1-c1cccc2[nH]ccc12`, for which the IC50 in assay [1] and in assay [2] was > 10 µM in each case.

For `FC(F)(F)Oc1ccc(Nc2cc(-c3cccc4c3oc3ccccc34)ncn2)cc1`, the IC50 in assay [1] was 4.6 µM; in assay [2], > 10 µM.

In the case of `FC(F)(F)Oc1ccc(Nc2cc(-c3cnn(Cc4ccccc4)c3)ncn2)cc1`, the results for the IC50 in assay [1] and in assay [2] were 1.3 µM and > 10 µM, respectively.

For `FC(F)(F)Oc1ccc(Nc2cc(-c3cc(Nc4ccc(OC(F)(F)F)cc4)ncn3)ncn2)cc1`, the IC50 was 7 µM in assay [1] and > 10 µM in assay [2].

Turning to `Cc1ccc(NC(=O)c2ccccc2)cc1Nc1nccn1-c1cc(Nc2ccc(OC(F)(F)F)cc2)ncn1`, the IC50 in assay [1] and in assay [2] was > 10 µM throughout.

In the case of `Cc1ccc(NC(=O)c2ccc(CN3CCOCC3)c(C(F)(F)F)c2)cc1Nc1nccn1-c1cc(Nc2ccc(OC(F)(F)F)cc2)ncn1`, the IC50 in assay [1] is 6.61 µM; in assay [2], > 10 µM.

With `FC(F)(F)Oc1ccc(Nc2cc(-c3ccnc4[nH]ccc34)ncn2)cc1`, the IC50 in assay [1] was > 10 µM; in assay [2], 6.85 µM.

For `O=c1cc(-c2cc(Nc3ccc(OC(F)(F)F)cc3)ncn2)cc[nH]1`, the IC50 in assay [1] and in assay [2] was > 10 µM throughout.

As for `Cc1nc(-c2cc(Nc3ccc(OC(F)(F)F)cc3)ncn2)cs1`, the IC50 in assay [1] and in assay [2] was > 10 µM each time.

As for `O=Cc1cc(-c2cc(Nc3ccc(OC(F)(F)F)cc3)ncn2)ccc1F`, the IC50 in assay [1] was 5.84 µM; in assay [2] it was 4.12 µM.

Turning to `CN1CCN(c2cc(-c3cc(Nc4ccc(OC(F)(F)F)cc4)ncn3)ccn2)CC1`, the IC50 in assay [1] was determined as 0.386 µM; in assay [2] it was 0.71 µM.

As to `OCCn1cc2c(Nc3ccc(OC(F)(F)F)cc3)ncnc2n1` [2-(4-(4-(trifluoromethoxy)phenylamino)-2H-pyrazolo[3,4-d]pyrimidin-2-yl)ethanol], the IC50 in assay [2] was > 10 µM.

For the molecule `O=C(NCCN1CCOCC1)c1cc2c(Nc3ccc(OC(F)(F)F)cc3)ncnc2s1` [drawing 332], the IC50 in assay [1] is > 10 µM.
